Laboratory results taken from article PMC6751730 (ACS Omega, 2019).

Columns and labels:
lysosomes in A549 cells = settings: cited from earlier work
A549 cancer cells = assay: MTT antiproliferative assay, A549; type: cell-based, human; settings: 24 h drug exposure
HepG2 cancer cells = assay: MTT antiproliferative assay, HepG2; type: cell-based; settings: 24 h drug exposure
BEAS-2B normal cells = assay: MTT antiproliferative assay, normal cells BEAS-2B; type: cell-based; settings: 24 h drug exposure
HeLa cancer cells = assay: MTT antiproliferative assay, HeLa; type: cell-based, human; settings: 24 h drug exposure

| SMILES | Colocalization coefficient with lysosome (lysosomes in A549 cells) | IC50 (A549 cancer cells) | IC50 (HepG2 cancer cells) | IC50 (BEAS-2B normal cells) | IC50 (HeLa cancer cells) |
| --- | --- | --- | --- | --- | --- |
| CCNc1cc2c(cc1C)C1(c3cc(C)c(NCC)cc3O2)c2ccccc2C(=O)N1N [rhodamine 6G hydrazide] | 0.58 | – | – | – | – |
| CCN(CC)c1ccc2c(c1)Oc1cc(N(CC)CC)ccc1C21c2ccccc2C(=O)N1N [rhodamine B hydrazide] | 0.62 | – | – | – | – |
| N.N.[Cl][Pt][Cl] [cisplatin] | – | 21.3 ± 1.7 µM | 22.7 ± 1.1 µM | 42 ± 2.3 µM | 7.5 ± 0.2 µM |
